The record followed here is patent publication US9701693B2, “Selective glycosidase inhibitors and uses thereof” (Alectos Therapeutics Inc., priority 2011, dated 2017).

By Ki is commonly meant the equilibrium dissociation constant of an inhibitor or competing ligand from its target. By EC50 is commonly meant the concentration needed to bring the measured effect to its halfway point. The low end stands for an effect from little substance, the high end for a need for much substance.

For one experiment, the target named is human O-GlcNAcase (Homo sapiens (Human), UniProt O60502). Put plainly: Fluorescence-based assay for determination of KI values for inhibition of O-GlcNAcase activity. In kind it is biochemical. As to conditions: purified human O-GlcNAcase 0.7 nM, 2 mM 4-Methylumbelliferyl N-acetyl-β-D-glucosaminide, pH 7.0, Cheng-Prusoff; read-out: Fluorescence-based hOGA Ki. How it is done:
Assay for Determination of KIValues for Inhibition of O-GlcNAcase Activity Experimental procedure for kinetic analyses: Enzymatic reactions were carried out in a reaction containing 50 mM NaH2PO4, 100 mM NaCl and 0.1% BSA (pH 7.0) using 2 mM 4-Methylumbelliferyl N-acetyl-β-D-glucosaminide dihydrate (Sigma M2133) dissolved in ddH2O, as a substrate. The amount of purified human O-GlcNAcase enzyme used in the reaction was 0.7 nM. Test compound of varying concentrations was added to the enzyme prior to initiation of the reaction. The reaction was performed at room temperature in a 96-well plate and was initiated with the addition of substrate. […] The slope of product production was determined for each concentration of compound tested and plotted, using standard curve fitting algorithms for sigmoidal dose response curves. The values for a four parameter logistic curve fit of the data were determined.

Experiment [1] relates to O-GlcNAcase in rat PC-12 cells. Nature of the experiment: Cell-based ELISA for cellular O-GlcNAcase inhibition (O-GlcNAcylated protein, RL-2 antibody). As to conditions: 24 h treatment, O-GlcNAcylated protein detected with RL-2 antibody. An excerpt: Assay for Determination of Cellular Activity for Compounds that Inhibit O-GlcNAcase Activity
Inhibition of O-GlcNAcase, which removes O-GlcNAc from cellular proteins, results in an increase in the level of O-GlcNAcylated protein in cells. An increase in O-GlcNAcylated protein can be measured by an antibody, such as RL-2, that binds to O-GlcNAcylated protein. The amount of O-GlcNAcylated protein:RL2 antibody interaction can be measured by enzyme linked immunosorbant assay (ELISA) procedures.
A variety of tissue culture cell lines, expressing endogenous levels of O-GlcNAcase, can be utilized; examples include rat PC-12, and human U-87, or SK-N-SH cells. […] If desired, the total protein concentration of samples was determined using 20 μL of the sample using the BCA method.
The ELISA portion of the assay was performed in a black Maxisorp 96-well plate that was coated overnight at 4° C. with 100 μL/well of the cell lysate (1:10 dilution of the lysate with PBS containing protease inhibitors, phosphatase inhibitors, and PMSF). […] The detection reaction was incubated for 15 minutes at room temperature and then read with excitation at 530 nm and emission at 590 nm
The amount of O-GlcNAcylated protein, as detected by the ELISA assay, was plotted for each concentration of test compound using standard curve fitting algorithms for sigmoidal dose response curves. […]
(In general: An ELISA detects its analyte on a solid surface through an enzyme-linked reagent.)

Sequence of human O-GlcNAcase (O60502 whole entry): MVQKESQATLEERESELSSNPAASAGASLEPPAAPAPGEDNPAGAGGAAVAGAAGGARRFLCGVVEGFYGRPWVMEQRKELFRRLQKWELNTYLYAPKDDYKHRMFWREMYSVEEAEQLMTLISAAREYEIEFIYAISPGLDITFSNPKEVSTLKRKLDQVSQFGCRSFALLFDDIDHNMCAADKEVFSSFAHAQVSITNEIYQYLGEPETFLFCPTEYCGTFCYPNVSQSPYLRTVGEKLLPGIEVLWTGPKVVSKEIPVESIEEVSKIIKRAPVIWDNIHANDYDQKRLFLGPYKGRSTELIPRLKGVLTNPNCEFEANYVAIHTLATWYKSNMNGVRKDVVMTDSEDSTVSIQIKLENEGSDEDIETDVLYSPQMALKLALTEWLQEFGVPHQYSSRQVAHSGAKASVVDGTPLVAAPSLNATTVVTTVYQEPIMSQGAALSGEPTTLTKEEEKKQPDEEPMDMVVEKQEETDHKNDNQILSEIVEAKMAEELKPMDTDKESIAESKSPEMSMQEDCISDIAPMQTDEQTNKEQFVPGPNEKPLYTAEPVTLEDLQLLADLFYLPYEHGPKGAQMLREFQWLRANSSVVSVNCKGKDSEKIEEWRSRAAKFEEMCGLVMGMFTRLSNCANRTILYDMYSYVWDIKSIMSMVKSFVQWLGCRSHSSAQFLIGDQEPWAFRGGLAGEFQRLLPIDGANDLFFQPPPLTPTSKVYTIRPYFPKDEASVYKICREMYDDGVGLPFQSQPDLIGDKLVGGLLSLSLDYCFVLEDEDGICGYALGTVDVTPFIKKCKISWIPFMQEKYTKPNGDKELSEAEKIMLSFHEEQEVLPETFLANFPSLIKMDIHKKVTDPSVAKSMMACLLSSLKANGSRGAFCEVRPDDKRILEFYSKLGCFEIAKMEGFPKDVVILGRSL

As for `CN(C)C1=N[C@@H]2[C@@H](O)[C@@H](O)[C@@H](CO)O[C@@H]2S1` [Example 2, (3aR,5R,6R,7R,7aR)-2-(dimethylamino)-5-(hydroxymethyl)-5,6,7,7a-tetrahydro-3aH-pyrano[3,2-d]thiazole-6,7-diol], the Ki at human O-GlcNAcase worked out at 28.6 nM.

In experiment [1], `CNC1=N[C@@H]2[C@H](O)[C@H](O)[C@@H](CO)O[C@@H]2S1` [Example 4, (3aR,5R,6S,7S,7aR)-5-(hydroxymethyl)-2-(methylamino)-5,6,7,7a-tetrahydro-3aH-pyrano[3,2-d]thiazole-6,7-diol] returned an EC50 of 109 nM.
